Values quoted from earlier work in patent US20210046029A1, “LEVODOPA AND CARBIDOPA INTESTINAL GEL AND METHODS OF USE” (AbbVie Inc., priority 2015, published 2021).

Target: T1, peripheral dopa decarboxylase (Homo sapiens, UniProt P20711)
T1 construct: host or cells: endogenous enzyme of peripheral tissues in vivo
T1 sequence (P20711 1-480): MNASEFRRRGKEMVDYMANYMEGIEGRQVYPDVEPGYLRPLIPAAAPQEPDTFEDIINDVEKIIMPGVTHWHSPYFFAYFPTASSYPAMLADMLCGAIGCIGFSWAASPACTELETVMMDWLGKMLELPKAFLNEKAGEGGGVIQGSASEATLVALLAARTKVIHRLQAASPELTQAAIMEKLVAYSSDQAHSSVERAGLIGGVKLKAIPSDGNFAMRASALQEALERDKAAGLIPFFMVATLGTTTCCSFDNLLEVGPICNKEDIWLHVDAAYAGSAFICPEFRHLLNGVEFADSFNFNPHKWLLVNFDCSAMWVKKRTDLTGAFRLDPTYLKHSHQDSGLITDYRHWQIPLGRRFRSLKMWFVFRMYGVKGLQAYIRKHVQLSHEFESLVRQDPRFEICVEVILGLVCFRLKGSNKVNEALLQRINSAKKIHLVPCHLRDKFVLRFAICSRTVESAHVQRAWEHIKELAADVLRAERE
Conditions: in vivo

Carbidopa dose that saturates peripheral dopa decarboxylase: 70-100 mg a day
Structure (SMILES): C[C@@](Cc1ccc(O)c(O)c1)(NN)C(=O)O [carbidopa, (2S)-3-(3,4-dihydroxy-phenyl)-2-hydrazino-2-methylpropanoic acid]
